{"source": "patent US20220145265A1", "about": "“IN VITRO EQUINE MODEL SYSTEMS AND THEIR INTEGRATION INTO HORSE-ON-A-CHIP PLATFORM” (University of Kentucky Research Foundation, priority 2020, published 2022)", "key": {"[1]": {"tested_on": "cellular esterase(s)", "assay": "Ciclesonide pro-drug hydrolysis to des-CIC in equine hepatic organoid-derived transwells", "type": "in vitro ADME", "conditions": "500 μM Ciclesonide, over time", "text": "(§1) FIG. 10A-10E. Identification and quantification of Ciclesonide metabolites produced by equine airway and hepatic organoid-derived tissue systems. FIG. 10A includes the structure of Ciclesonide, which is a pro-drug that is metabolized in the lungs to the active form, desisobutyryl-Ciclesonide (des-CIC). FIG. 10B includes MS spectra showing representative fragmentation pattern of kinetic des-CIC conversion from CIC hydrolysis generated by equine bronchioalveolar organoid-derived transwells treated with pro-drug. FIGS. 10C-10D plot quantification of des-CIC metabolite produced by equine airway organoid-derived transwells treated with 50 μM (FIG. 10C) or 500 μM (FIG. 10D) Ciclesonide as a function of time. FIG. 10E plots quantification of des-CIC metabolite produced by equine hepatic organoid-derived transwells treated with 500 μM Ciclesonide as a function of time. […]\nApical samples were obtained from the transwell upper chamber containing the bronchioalveolar tissue; basolateral samples were obtained from the lower transwell chamber containing untreated medium. FIG. 10E includes the results of quantification of des-CIC metabolite produced by equine hepatic organoid-derived transwells treated with 500 μM Ciclesonide. […]"}, "[2]": {"tested_on": "cellular esterase(s)", "assay": "Ciclesonide pro-drug hydrolysis to des-CIC in equine airway (bronchioalveolar) organoid-derived transwells", "type": "in vitro ADME", "conditions": "50 μM or 500 μM Ciclesonide, over time", "text": "as §1\nFIG. 10B, includes representative fragmentation pattern of kinetic des-CIC conversion from CIC hydrolysis generated by equine bronchioalveolar organoid-derived transwells treated with pro-drug. […] Quantification of des-CIC metabolite produced by equine airway organoid-derived transwells treated with 50 μM (FIG. 10C) or 500 μM (FIG. 10D) Ciclesonide over time. […]"}, "[3]": {"tested_on": "CYP3A89", "text": "FIG. 5A-51I. Development of an equine intestine-on-a-chip. FIG. 5A: Schematic representation of equine intestine-on-a-chip, including the top view of the Emulate chip (left), and a vertical slice (right) showing the epithelial channel (1, blue), the microvasculature channel (2, pink), and microchannels populated by organoid-derived intestinal epithelial cells (3) and endothelial cells (4), separated by flexible, porous membrane coated by extracellular matrices (5). FIG. 5B: Brightfield image of an equine intestine-chip cultured for 12 days in the presence of fluid flow and stretch (30 μl/h flow, 10% strain, 0.2 Hz). FIG. 5C: High magnification, phase contrast image of the intestinal epithelium channel depicted in b. […] FIG. 5E: Intestinal epithelium height measured in situ over a 400 μm section of the intestine-chip depicted in b. […] FIG. 5G: qPCR analysis of transcripts associated with intestine cell differentiation in organ-chips compared to 3D enteroid culture. (FIG. 5H: Testosterone conversion by epithelial CYP3A89 in equine intestine-chips was monitored by LC-MS/MS. Graph depicts the percent conversion of testosterone to 6-hydroxytestosterone at two concentrations. Scale bar represents 100 μm in panels 5B, 5C, 5D, and 5F. Schematic in 5A adapted and modified from Kasendra et al., eLife 2020.\nFinally, studies were performed to evaluate the suitability of intestine chips for drug metabolism and CYP3A89 (CYP3A4 homolog (24)) induction. For these experiments, we inoculated testosterone into the inlet reservoir for the epithelial channel, flowed the testosterone-containing media through the chip at a rate of 30 μl/h, and collected samples from the effluent chambers from both the epithelial and vasculature channels."}}}
{"smiles": "CC(C)C(=O)OCC(=O)[C@@]12O[C@H](C3CCCCC3)O[C@@H]1C[C@H]1[C@@H]3CCC4=CC(=O)C=C[C@]4(C)[C@H]3[C@@H](O)C[C@@]12C", "note": "[Ciclesonide]", "values": [{"measurement": "pro-drug hydrolysis to desisobutyryl-Ciclesonide (kinetics in words)", "setting": "[1]", "result": "rapid and linear"}, {"measurement": "pro-drug hydrolysis to desisobutyryl-Ciclesonide (kinetics in words)", "setting": "[2]", "result": "rapid and linear"}]}
{"smiles": "C[C@]12CC[C@H]3[C@@H](CCC4=CC(=O)CC[C@@]43C)[C@@H]1CC[C@@H]2O", "note": "[testosterone]", "values": [{"measurement": "channel in which testosterone metabolites were detected", "setting": "[3]", "result": "detected only in the epithelial channel effluent"}, {"measurement": "time by which CYP3A89-mediated conversion of testosterone to 6-hydroxytestosterone was revealed", "setting": "[3]; equine intestine-chip, flow 30 μl/h, effluent samples, post-treatment", "result": "≤ 1", "unit": "h"}, {"measurement": "time of peak testosterone metabolism", "setting": "[3]; horse", "result": "roughly 3 h"}]}
